Results taken from ChEMBL document CHEMBL6109096, “Synthesis, anti-allergic rhinitis evaluation and mechanism investigation of novel 1,2,4-triazole-enamides as CB1 R antagonist” (Eur J Med Chem, 2025).
Calls of active or inactive are those of the source. The calls are words filed in the database; no cut-off is given here.

Tests used:
RAW264.7 [1] = assay: Cytotoxicity against mouse RAW264.7 cells assessed as reduction in cell viability at 10 uM incubated for 24 hrs by CCK-8 assay; format: toxicity, cell-based; conditions: raw264.7, 24 h
RAW264.7 [2] = assay: Anti-inflammatory activity in LPS-induced mouse RAW264.7 cells assessed as reduction in IL-6 mRNA expression incubated for 24 hrs by qRT-PCR analysis; format: functional, cell-based; conditions: dose 5-20 µM
RAW264.7 [3] = assay: Anti-inflammatory activity in LPS-induced mouse RAW264.7 cells assessed as reduction in IL-1beta mRNA expression incubated for 24 hrs by qRT-PCR analysis; format: functional, cell-based; conditions: dose 5-20 µM
RAW264.7 [4] = assay: Anti-inflammatory activity in LPS-induced mouse RAW264.7 cells assessed as reduction in TNF-alpha mRNA expression incubated for 24 hrs by qRT-PCR analysis; format: functional, cell-based; conditions: dose 5-20 µM
Mus musculus [5] = assay: Anti-inflammatory activity in ovalbumin-induced allergic rhinitis male Balb/c mouse model assessed as reduction in sneezing administered orally via gavage for 7 days; format: functional, organism-based; conditions: dose 50-150 mg/kg, route po, time 7.0 day
Mus musculus [6] = assay: Anti-inflammatory activity in ovalbumin-induced allergic rhinitis male Balb/c mouse model assessed as reduction in nose scratching administered orally via gavage for 7 days; format: functional, organism-based; conditions: dose 50-150 mg/kg, route po, time 7.0 day
Mus musculus [7] = assay: Anti-inflammatory activity in ovalbumin-induced allergic rhinitis male Balb/c mouse model assessed as reduction in IgE expression at 50 mg/kg, po administered via gavage for 7 days (reference value: 0.268 +/- 0.045); format: functional; conditions: time 7 day
Mus musculus [8] = assay: Anti-inflammatory activity in ovalbumin-induced allergic rhinitis male Balb/c mouse model assessed as reduction in IgE expression at 100 mg/kg, po administered via gavage for 7 days (reference value: 0.268 +/- 0.045); format: functional; conditions: time 7 day
Mus musculus [9] = assay: Anti-inflammatory activity in ovalbumin-induced allergic rhinitis male Balb/c mouse model assessed as reduction in IgE expression at 150 mg/kg, po administered via gavage for 7 days (reference value: 0.268 +/- 0.045); format: functional; conditions: time 7 day
Mus musculus [10] = assay: Anti-inflammatory activity in ovalbumin-induced allergic rhinitis male Balb/c mouse model assessed as reduction in serum histamine expression at 50 to 150 mg/kg, po administered via gavage for 7 days by ELISA; format: functional, organism-based; conditions: dose 50-150 mg/kg, time 7.0 day
Mus musculus [11] = assay: Anti-inflammatory activity in ovalbumin-induced allergic rhinitis male Balb/c mouse model assessed as reduction in IL-4 expression in nasal lavage fluid at 50 to 150 mg/kg, po administered via gavage for 7 days by ELISA; format: functional, organism-based; conditions: dose 50-150 mg/kg, time 7.0 day
Mus musculus [12] = assay: Anti-inflammatory activity in ovalbumin-induced allergic rhinitis male Balb/c mouse model assessed as reduction in serum histamine expression at 150 mg/kg, po administered via gavage for 7 days by ELISA; format: functional, organism-based; conditions: time 7.0 day
Mus musculus [13] = assay: Anti-inflammatory activity in ovalbumin-induced allergic rhinitis male Balb/c mouse assessed as reduction in number of cells on nasal lavage fluid at 50 to 150 mg/kg, po administered via gavage for 7 days by giemsa staining based analysis; format: functional, organism-based; conditions: dose 50-150 mg/kg, time 7.0 day
Mus musculus [14] = assay: Anti-inflammatory activity in ovalbumin-induced allergic rhinitis male Balb/c mouse assessed as reduction in number of mast cells on nasal lavage fluid at 50 to 150 mg/kg, po administered via gavage for 7 days by giemsa staining based analysis; format: functional, organism-based; conditions: dose 50-150 mg/kg, time 7.0 day
Mus musculus [15] = assay: Anti-inflammatory activity in ovalbumin-induced allergic rhinitis male Balb/c mouse assessed as reduction in number of eosinophils on nasal lavage fluid at 50 to 150 mg/kg, po administered via gavage for 7 days by giemsa staining based analysis; format: functional, organism-based; conditions: dose 50-150 mg/kg, time 7.0 day
Mus musculus [16] = assay: Anti-inflammatory activity in ovalbumin-induced allergic rhinitis male Balb/c mouse assessed as reduction in number of eosinophils on nasal lavage fluid at 150 mg/kg, po administered via gavage for 7 days by giemsa staining based analysis; format: functional, organism-based; conditions: time 7.0 day
Mus musculus [17] = assay: Anti-inflammatory activity in ovalbumin-induced allergic rhinitis male Balb/c mouse assessed as reduction in number of mast cells on nasal lavage fluid at 150 mg/kg, po administered via gavage for 7 days by giemsa staining based analysis; format: functional, organism-based; conditions: time 7.0 day
Mus musculus [18] = assay: Anti-inflammatory activity in ovalbumin-induced allergic rhinitis male Balb/c mouse assessed as reduction in inflammation of nasal mucosal tissue at 50 to 150 mg/kg, po administered via gavage for 7 days by H and E staining based analysis; format: functional, organism-based; conditions: dose 50-150 mg/kg, time 7.0 day
Mus musculus [19] = assay: Anti-inflammatory activity in ovalbumin-induced allergic rhinitis male Balb/c mouse assessed as reduction in number of goblet cells in nasal mucosal tissues at 50 to 150 mg/kg, po administered via gavage for 7 days by PAS staining based analysis; format: functional, organism-based; conditions: dose 50-150 mg/kg, time 7.0 day
RAW264.7 [20] = assay: Downregulation of CB1 R expression in LPS-induced mouse RAW264.7 cells at 5 to 20 uM by immunofluorescence staining based analysis; format: functional, cell-based; conditions: dose 5-20 µM
RAW264.7 [21] = assay: Downregulation of P-P65 protein expression in LPS-induced mouse RAW264.7 cells at 5 to 20 uM by Western blotting analysis; format: functional, cell-based; conditions: dose 5-20 µM
RAW264.7 [22] = assay: Downregulation of P-IKBalpha protein expression in LPS-induced mouse RAW264.7 cells at 5 to 20 uM by Western blotting analysis; format: functional, cell-based; conditions: dose 5-20 µM
RAW264.7 [23] = assay: Downregulation of p-P38 protein expression in LPS-induced mouse RAW264.7 cells at 5 to 20 uM by Western blotting analysis; format: functional, cell-based; conditions: dose 5-20 µM
RAW264.7 [24] = assay: Downregulation of p-JNK protein expression in LPS-induced mouse RAW264.7 cells at 5 to 20 uM by Western blotting analysis; format: functional, cell-based; conditions: dose 5-20 µM
RAW264.7 [25] = assay: Downregulation of p-ERK protein expression in LPS-induced mouse RAW264.7 cells at 5 to 20 uM by Western blotting analysis; format: functional, cell-based; conditions: dose 5-20 µM
RAW264.7 [26] = assay: Downregulation of p-P38 expression in mouse RAW264.7 cells at 5 to 20 uM by immunofluorescence staining based analysis; format: functional, cell-based; conditions: dose 5-20 µM
RAW264.7 [27] = assay: Downregulation of p-P38 intranuclear expression in mouse RAW264.7 cells at 5 to 20 uM by immunofluorescence staining based analysis; format: functional, cell-based; conditions: dose 5-20 µM
Mus musculus [28] = assay: Anti-inflammatory activity in ovalbumin-induced allergic rhinitis male Balb/c mouse model assessed as decrease in p-p38 intranuclear expression in nasal mucosal at 50 to 150 mg/kg, po administered via gavage for 7 days by immunofluorescence staining based analysis; format: functional, organism-based; conditions: dose 50-150 mg/kg, time 7.0 day
RAW264.7 [29] = assay: Inhibition of IL-1beta (unknown origin) in mouse RAW264.7 relative to control; format: cell-based; conditions: dose or concentration not given here
RAW264.7 [30] = assay: Inhibition of IL-6 (unknown origin) in mouse RAW264.7 relative to control; format: cell-based; conditions: dose or concentration not given here

**Q.** Which Activity (RAW264.7 [1]) does the source give for CN(/C=C\c1ccccc1)C(=O)c1nc(C2CCCCC2)n(-c2ccccc2)n1 here?
**A.** The Activity was “Non-toxic”.

**Q.** And the Activity (RAW264.7 [2])?
**A.** Its Activity is “Dose-dependent-effect”.

**Q.** What about the Activity (RAW264.7 [3]) of the same compound?
**A.** Its Activity is “Dose-dependent-effect”.

**Q.** What about the Activity (RAW264.7 [4]) of the same compound?
**A.** The Activity was “Dose-dependent-effect”.

**Q.** What about the Activity (Mus musculus [5]) of the same compound?
**A.** Its Activity is “Dose-dependent-effect”.

**Q.** And the Activity (Mus musculus [6])?
**A.** Its Activity is “Dose-dependent-effect”.

**Q.** And the Activity (Mus musculus [7])?
**A.** The Activity was 0.192.

**Q.** And the Activity (Mus musculus [8])?
**A.** Its Activity is 0.212.

**Q.** And the Activity (Mus musculus [9])?
**A.** The Activity was 0.182.

**Q.** What about the Activity (Mus musculus [10]) of the same compound?
**A.** The Activity was “Active”.

**Q.** And the Activity (Mus musculus [11])?
**A.** Its Activity is “Active”.

**Q.** And the Activity (Mus musculus [12])?
**A.** The Activity was “Active; More Effective Than Other Dosing Group”.

**Q.** What about the Activity (Mus musculus [13]) of the same compound?
**A.** The Activity was “Active”.

**Q.** What about the Activity (Mus musculus [14]) of the same compound?
**A.** The Activity was “Active”.

**Q.** What about the Activity (Mus musculus [15]) of the same compound?
**A.** The Activity was “Active”.

**Q.** And the Activity (Mus musculus [16])?
**A.** The Activity was “Active; Most Effective Group Compared To Other Dosing Group”.

**Q.** What about the Activity (Mus musculus [17]) of the same compound?
**A.** The Activity was “Active; Most Effective Group Compared To Other Dosing Group”.

**Q.** And the Activity (Mus musculus [18])?
**A.** Its Activity is “Active”.

**Q.** What about the Activity (Mus musculus [19]) of the same compound?
**A.** Its Activity is “Active”.

**Q.** What about the Activity (RAW264.7 [20]) of the same compound?
**A.** Its Activity is “Active”.

**Q.** What about the Activity (RAW264.7 [21]) of the same compound?
**A.** The Activity was “Active”.

**Q.** What about the Activity (RAW264.7 [22]) of the same compound?
**A.** The Activity was “Active”.

**Q.** What about the Activity (RAW264.7 [23]) of the same compound?
**A.** Its Activity is “Active”.

**Q.** And the Activity (RAW264.7 [24])?
**A.** The Activity was “Active”.

**Q.** What about the Activity (RAW264.7 [25]) of the same compound?
**A.** Its Activity is “Active”.

**Q.** And the Activity (RAW264.7 [26])?
**A.** The Activity was “Active”.

**Q.** And the Activity (RAW264.7 [27])?
**A.** The Activity was “Active”.

**Q.** And the Activity (Mus musculus [28])?
**A.** Its Activity is “Active”.

**Q.** And the inhibition (RAW264.7 [29])?
**A.** The inhibition was 77%.

**Q.** What about the inhibition (RAW264.7 [30]) of the same compound?
**A.** Its inhibition is 88%.
